Patent US12398141B2 (SHANGHAI SYNERGY PHARMACEUTICAL SCIENCES CO., LTD, priority 2019, dated 2025)

Key:
[1] = target: JAK3 (Homo sapiens (Human), UniProt P52333); experiment: JAK3 LANCE Ultra kinase assay; format: biochemical; details: 4 uM ATP
[2] = tested on: Lewis male mice; experiment: Collagen-induced rheumatoid arthritis model, clinical score; format: in vivo; design: key: 0-4 per limb by redness/deformity, max 16 per animal; details: clinical score 0-16 per animal, compounds 10 mg/kg twice/day, methotrexate 2 mg/kg every three days
Protocol: (§1) The effects of compounds H07, H12, H14, H25, H30, H39 and H44 on rheumatoid arthritis in […] were determined after long term administration by using Lewis male […] (Beijing Vital River Laboratory Animal Technology Co., Ltd.), aged 5-6 weeks and weighing […] as test animals. The anti-inflammatory pharmacodynamics characteristic of the compounds of the invention was discussed.
(§2) A certain amount of compounds were taken and dissolved in 4% Tween 80/0.5% hydroxy propyl methyl cellulose solution. A volume of intragastric administration of mice was 10 ml/kg.
(§3) Collagen type II was dissolved in 0.1M acetic acid and kept in a 4° C. refrigerator overnight at a collagen concentration of 4 mg/mL. Same volume of incomplete Freund adjuvant (Sigma, USA) was added in collagen before injection in test, which was emulsified high speed homogenizer (30000 rpm) to prepare a collagen emulsion. This procedure was carried out on ice.
(§4) Mice were immunologically injected with the collagen emulsion by two separate times for modeling on days 1 and 7 (the day before modeling was day 0). 0.1 ml of collagen emulsion prepared as above was injected intradermally into a root of tail at a single point, and 0.2 ml was injected intradermally into back at two points. The animals were subjected to clinical score and paw volume test from day 10 to day 14 after modeling. Animals successfully modeled (average clinical score≥3 points/animal) were assigned to each administration group, with each group included 10 animals. They were administrated intragastrically with above compounds or resolvents at a dosage of 10 mg/kg twice/day, and administrated intragastrically with methotrexate (2 mg/kg, Sigma, USA) every three days, until day 27. During the test, the […] were scored twice a week, and the paw volume and body weight were measured twice.
(§5) According to the different degrees of lesions (redness and joint deformation), the scores were ranged from 0 to 4 points, with the highest score of 4 points for each limb and 16 points for each animal. Scoring standards are as follows: 0, no redness; 1, slight redness on mid legs (tarsals) or ankles; 2, slight redness from ankles to mid legs (tarsals); 3, medium redness from ankles to tarsometatarsal joints; 4, severe redness from toes or fingers to ankles or wrist joints.

[3] = as above; format: in vivo, mice; design: key: 0-4 per limb by redness/deformity, max 16 per animal; details: clinical score 0-16 per animal, Day 0 (before modeling)
Protocol: as §1, §2, §3, §4, §5

JAK3, sequence (P52333 whole entry): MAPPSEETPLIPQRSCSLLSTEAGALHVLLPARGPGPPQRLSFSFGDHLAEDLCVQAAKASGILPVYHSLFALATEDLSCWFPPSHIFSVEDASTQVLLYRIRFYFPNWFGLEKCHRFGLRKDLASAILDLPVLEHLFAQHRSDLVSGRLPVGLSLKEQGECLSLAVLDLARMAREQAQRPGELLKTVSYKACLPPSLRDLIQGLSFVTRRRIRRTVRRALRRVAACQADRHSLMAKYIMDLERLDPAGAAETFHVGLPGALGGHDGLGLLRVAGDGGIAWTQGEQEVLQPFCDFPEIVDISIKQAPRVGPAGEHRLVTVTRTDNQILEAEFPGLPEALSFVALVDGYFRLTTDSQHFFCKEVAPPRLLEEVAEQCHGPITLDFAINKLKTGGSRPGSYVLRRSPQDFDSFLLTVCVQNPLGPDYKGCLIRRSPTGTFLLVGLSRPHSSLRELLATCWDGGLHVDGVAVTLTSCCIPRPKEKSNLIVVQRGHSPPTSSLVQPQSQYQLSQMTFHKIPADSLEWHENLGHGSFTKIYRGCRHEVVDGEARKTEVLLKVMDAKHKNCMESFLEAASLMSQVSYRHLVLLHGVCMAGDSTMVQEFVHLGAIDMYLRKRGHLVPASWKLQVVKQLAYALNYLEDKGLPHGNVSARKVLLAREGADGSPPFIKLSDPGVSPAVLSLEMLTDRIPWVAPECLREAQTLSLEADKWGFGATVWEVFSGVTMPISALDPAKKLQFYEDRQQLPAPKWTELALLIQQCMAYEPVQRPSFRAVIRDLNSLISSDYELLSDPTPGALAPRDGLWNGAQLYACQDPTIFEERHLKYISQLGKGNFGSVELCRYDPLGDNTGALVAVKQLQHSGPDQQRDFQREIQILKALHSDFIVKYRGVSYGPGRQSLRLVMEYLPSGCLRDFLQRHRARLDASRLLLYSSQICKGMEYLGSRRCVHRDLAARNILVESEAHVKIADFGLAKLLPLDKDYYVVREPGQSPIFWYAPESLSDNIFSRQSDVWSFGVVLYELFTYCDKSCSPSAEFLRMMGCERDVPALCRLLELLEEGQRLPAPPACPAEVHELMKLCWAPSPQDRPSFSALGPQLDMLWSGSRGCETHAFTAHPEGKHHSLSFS

Structure (SMILES)	IC50 [1] [nM]	Score Day 13 [2]	Score Day 14 [2]	Score Day 18 [2]	Score Day 21 [2]	Score Day 25 [2]	Score Day 27 [2]	Score Day 0 [3]
COc1nsc(NC(=O)N2C[C@H]3C[C@H](N(C)c4c(C#N)cnc5[nH]ccc45)C[C@H]3C2)n1 [Compound H07, (3aR,5s,6aS)-4-({2-[(3-methoxy-1,2,4-thiadiazole-5-yl)carbamoyl]-hexahydrocyclopenta[c]pyrrole-5-yl}-methyl-amino)-1H-pyrrolo[2,3-b]pyridin-5-carbonitrile]		3.10 ± 056	4.10 ± 0.41	3.10 ± 0.30	3.00 ± 0.11	2.00 ± 0.25	1.00 ± 0.17	0.00 ± 0.00
CCCS(=O)(=O)N[C@H]1C[C@@H](N(C)c2c(C#N)cnc3[nH]ccc23)C1 [Compound H14, (cis)-4-{[3-(propanesulfonamido)-cyclobutyl-1-yl]-methyl-amino}-1H-pyrrolo[2,3-b]pyridin-5-carbonitrile]	34.2	3.30 ± 0.32	4.10 ± 0.50	3.20 ± 0.73	3.20 ± 0.61	2.20 ± 0.45	1.10 ± 0.27	0.00 ± 0.00
C[C@@H]1CCN(C(=O)CC#N)C[C@@H]1N(C)c1c(C#N)cnc2[nH]ccc12 [Compound H11, 4-{[(3R,4R)-1-(2-cyanoacetyl)-4-methylpiperidin-3-yl]-methyl-amino}-1H-pyrrolo[2,3-b]pyridin-5-carbonitrile]	77							
N#Cc1cnc2[nH]ccc2c1N[C@H]1C[C@@H](NS(=O)(=O)CCC(F)(F)F)C1 [Compound H12, (cis)-4-{[3-(3,3,3-trifluoropropanesulfonamido)-cyclobutyl-1-yl]-amino}-1H-pyrrolo[2,3-b]pyridin-5-carbonitrile]	66	3.40 ± 0.39	3.90 ± 0.61	2.90 ± 0.67	1.23 ± 0.29	0.60 ± 0.17	0.50 ± 0.14	0.00 ± 0.00
CN(c1c(C#N)cnc2[nH]ccc12)[C@H]1C[C@@H](NS(=O)(=O)CCC(F)(F)F)C1 [Compound H15, (cis)-4-{[3-(3,3,3-trifluoropropanesulfonamide)-cyclobutyl-1-yl]-methyl-amino}-1H-pyrrolo[2,3-b]pyridin-5-carbonitrile]	244							

The next lines start with results.

IC50 [1] [nM]	Structure (SMILES)	Score Day 13 [2]	Score Day 14 [2]	Score Day 18 [2]	Score Day 21 [2]	Score Day 25 [2]	Score Day 27 [2]	Score Day 0 [3]
58	CN(c1c(C#N)cnc2[nH]ccc12)[C@H]1C[C@@H]2CN(C(=O)Nc3ccc(Cl)c(C(F)(F)F)c3)C[C@@H]2C1 [Compound H25, (3aR,5s,6aS)-N-(4-chloro-3-(trifluoromethyl)phenyl)-5-((5-cyano-1H-pyrrolo[2,3-b]pyridin-4-yl)(methyl)amino)hexahydrocyclopentadiene[c]pyrrole-2(1H)-carboxamide]	2.90 ± 0.48	3.40 ± 0.27	2.13 ± 0.21	1.10 ± 0.10	0.93 ± 0.18	0.74 ± 0.34	0.00 ± 0.00
76	CC(C)c1nsc(NC(=O)N2C[C@H]3C[C@H](N(C)c4c(C#N)cnc5[nH]ccc45)C[C@H]3C2)n1 [Compound H30, (3aR,5s,6aS)-4-({2-[(3-isopropyl-1,2,4-thiadiazole-5-yl)carbamoyl]-hexahydrocyclopenta[c]pyrrole-5-yl}-methyl-amino)-1H-pyrrolo[2,3-b]pyridin-5-carbonitrile]	3.20 ± 0.37	4.00 ± 0.45	3.50 ± 0.50	2.83 ± 0.29	2.00 ± 0.27	1.20 ± 0.27	0.00 ± 0.00
150	N#Cc1cnc2[nH]ccc2c1N1CC2CN(C(=O)NCC(F)(F)F)CC21 (stereo not drawn) [Compound H39, 6-(5-cyano-1H-pyrrolo[2,3-b]pyridin-4-yl)-N-(2,2,2-trifluoroethyl)-3,6-diazabicyclo[3.2.0]heptane-3-carboxamide]	3.10 ± 0.44	4.10 ± 0.50	3.0 ± 0.37	2.33 ± 0.31	2.20 ± 0.52	1.10 ± 0.27	0.00 ± 0.00
58	CN(c1c(C#N)cnc2[nH]ccc12)[C@H]1C[C@@H]2CN(C(=O)NCC(F)(F)F)C[C@@H]2C1 [Compound H22, (3aR,5s,6aS)-4-({2-[(2,2,2-trifluoroethyl)-carbamoyl]-hexahydrocyclopenta[c]pyrrole-5-yl}-methyl-amino)-1H-pyrrolo[2,3-b]pyridin-5-carbonitrile]							
40	CN(C)c1nsc(NC(=O)N2C[C@H]3C[C@H](N(C)c4c(C#N)cnc5[nH]ccc45)C[C@H]3C2)n1 [Compound H33, (3aR,5s,6aS)-4-({2-[(3-dimethylamino-1,2,4-thiadiazole-5-yl)carbamoyl]-hexahydrocyclopenta[c]pyrrole-5-yl}-methyl-amino)-1H-pyrrolo[2,3-b]pyridin-5-carbonitrile]							
80	CN(c1c(C#N)cnc2[nH]ccc12)[C@H]1C[C@@H]2CN(C(=O)Nc3nc(OCC(C)(C)N)ns3)C[C@@H]2C1 [Compound H44, (3aR,5s,6aS)-5-((5-cyano-1H-pyrrolo[2,3-b]pyridin-4-yl)(methyl)amino)-N-(3-(2-amino-2-methyl-propoxy)-1,2,4-thiadiazole-5-yl)hexahydrocyclopentadiene[c]pyrrole-2(1H)-carboxamide]	2.80 ± 0.45	3.40 ± 0.27	2.13 ± 0.21	1.70 ± 0.10	0.83 ± 0.48	0.64 ± 0.34	0.00 ± 0.00
60	COc1nsc(NC(=O)N[C@H]2C[C@@H](N(C)c3c(C#N)cnc4[nH]ccc34)C2)n1 [Compound H29, (cis)-1-(3-((5-cyano-1H-pyrrolo[2,3-b]pyridin-4-yl)(methyl)amino)cyclobutyl)-3-(3-methoxy-1,2,4-thiadiazole-5-yl)urea]							
